Assays:
Type in all cases: cell-based, Human
[1] = system: NCI-H1793; test: Cell viability by APR-246 treatment concentration (IncuCyte, crystal violet); conditions: NCI-H1793 p53-mutant lung cancer cells, 4 to 5 days, FIG. 7A
Procedure: (§1) Human lung cancer cell lines NCI-H1793, NCI-H2009, and HCC827 were purchased from the Korea Cell Line Bank (KCLB), and NCI-H1792 was purchased from the American Type Culture Collection (ATCC). NCI-H1793 and HCC827 were cultured in a RPMI 1640 medium supplemented with 10% fetal bovine serum (FBS) and antibiotics (100 U/ml penicillin, 100 μg/ml of streptomycin, and 0.25 μg/ml of Fungizone). NCI-H1792 and NCI-H2009 were cultured with the same supplements in a DMEM medium. All the cell lines were cultured at 37° C. in an incubator containing 5% carbon dioxide.
(§2) Dimethyl sulfoxide (DMSO) was purchased from Sigma-Aldrich and was used as a drug control. APR-246 and TGFβ1 protein were purchased from MedChemExpress (MCE). APR-246 was used by diluting 25 mg to a final concentration of 10 mM, and the cells were treated for 4 to 5 days when checking the cell viability and for 24 hours when performing a Western blot experiment. In addition, TGFβ1 at a concentration of 10 μg/ml was a TGF-beta pathway activator, and drug-sensitive cell lines were seeded and treated with 5 ng/ml of TGFβ1 24 hours later, and the cells were harvested 24 hours later.
(§3) Cells were seeded in a 96-well plate at 3 to 5×10^3 cells per well. A drug was then treated within 24 hours after seeding. After drug treatment, cell growth was recorded every 3 hours using IncuCyte ZOOM for 4 to 5 days. Cell viability was analyzed using IncuCyte ZOOM 2016A software. After 4 to 5 days, the cells were stained with 1% crystal violet for 30 minutes at room temperature and washed with distilled water to confirm the amount of viable cells.
(§4) The present inventors confirmed the cell viability according to the APR-246 drug treatment concentration for lung cancer cell lines NCI-H1793, NCI-H1792, HCC827, and NCI-H2009, which were known to have p53 mutations. At this time, APR-246 drug-sensitive cell lines and resistant cell lines were distinguished based on z-score normalized IC50 values.

[2] = system: NCI-H1792; test: as above; conditions: NCI-H1792 p53-mutant lung cancer cells, 4 to 5 days, FIG. 7A
Procedure: as §1, §2, §3, §4

[3] = system: NCI-H2009; test: as above; conditions: NCI-H2009 p53-mutant lung cancer cells, 4 to 5 days, FIG. 7B
Procedure: as §1, §2, §3, §4

[4] = system: HCC827; test: as above; conditions: HCC827 p53-mutant lung cancer cells, 4 to 5 days, FIG. 7B
Procedure: as §1, §2, §3, §4

[5] = system: THBS1 mRNA; test: THBS1 knockdown by shRNA, mRNA level by qRT-PCR; conditions: lentiviral shRNA, FIG. 8A
Procedure: HEK 293T cells were used to transfect shRNA targeting THBS1 and an overexpression vector. In addition to shRNA (shTHBS1; […]; SEQ ID NO: 1) and an overexpression vector (pDNA (VB220725-1808zjh); […]. Infected cells were selected using 1 μg/ml of puromycin for at least one week.
(§5) Total RNA was extracted from cells using a total RNA extraction kit from Intron Biotechnology. Genomic DNA was removed by treatment with RNase-free DNase I. Complementary DNA (cDNA) was synthesized using a DiaStar RT kit of Solgent. In addition, RT-PCR was performed using Veriti 96-well Thermal Cycler of Applied Biosystems, and real-time polymerase chain reaction (qRT-PCR) was performed using a QuantStudio 5 real-time PCR system, an SYBR master mix (Genet Bio), and primers.
At this time, when NCI-H1792 and NCI-H1793 cell lines, lung cancer cell lines with drug resistance to APR-246, were treated with THBS1-targeting shRNA (SEQ ID NO: 1; […]) as a THBS1 inhibitor, the THBS1 mRNA expression level was reduced (FIG. 8A). In addition, when THBS1 was overexpressed in NCI-H2009 and HCC827, lung cancer cell lines with high drug responsiveness to APR-246, it was confirmed that the THBS1 mRNA expression level was increased (FIG. 8B).

[6] = system: TGFβ1 mRNA; test: TGFβ1 mRNA expression after TGF-beta pathway activation in sensitive cell lines; conditions: two sensitive cell lines, 5 ng/ml TGFβ1 24 hours after seeding, harvested 24 hours later, FIGS. 10D and 10E
Procedure: as §2, §5

[7] = system: THBS1; test: THBS1 expression after TGF-beta pathway activation in sensitive cell lines; conditions: two sensitive cell lines, 5 ng/ml TGFβ1 24 hours after seeding, harvested 24 hours later, FIGS. 10D and 10E
Procedure: as §2, §5

COCC1(CO)C(=O)C2CCN1CC2 (centres unmarked) [APR-246]
drug response (cell viability) [1]: hardly responded | drug response (cell viability) [2]: hardly responded | drug response (cell viability) [3]: clear response | drug response (cell viability) [4]: clear response

THBS1-targeting shRNA: short hairpin RNA targeting THBS1, GTAGGTTATGATGAGTTTAAT (SEQ ID NO: 1), delivered by lentivirus (guide GUAGGUUAUGAUGAGUUUAAU)
THBS1 mRNA expression level ([5]; NCI-H1792 cells): reduced | THBS1 mRNA expression level ([5]; NCI-H1793 cells): reduced

drug that activated the TGF-beta signaling pathway: TGFβ1 protein from MedChemExpress, used as TGF-beta pathway activator at 5 ng/ml
mRNA expression level of TGFβ1 [6]: increased | expression level of THBS1 [7]: increased

— patent US20250302863A1, “USE OF THBS1 INHIBITOR FOR OVERCOMING DRUG RESISTANCE IN CANCER” (KOREA ADVANCED INSTITUTE OF SCIENCE AND TECHNOLOGY, priority 2022, published 2025)
